Test results as given in article PMC9376946, “Peptide-RNA Coacervates as a Cradle for the Evolution of Folded Domains” (Journal of the American Chemical Society, 2022).
Where “and” joins values, the source holds several entries; their conditions need not be identical. Equal entries are not always repeated.

System: polyU
Test: CW-EPR of PA-12 in the presence of polyU (bound, slow-motion population)
Format: binding
Conditions: spectral simulation
Procedure: Lyophilized, spin-labeled peptides were dissolved in Milli-Q water and centrifuged at 4000 rpm for 10 min to remove insoluble aggregates. The soluble fractions were used to prepare stock solutions of 250–500 μM peptide. Labeled peptide concentrations were determined by comparing the area under the curve of the EPR signal against that of standard solutions of 10–285 μM TEMPO. For the EPR measurements in D2O, 200 μL of the stock solution was lyophilized and re-dissolved in D2O. The concentration of the unlabeled peptide stock solutions was determined using the bicinchoninic acid assay (Thermo Fisher Scientific) and ranged from 0.8 to 1.2 mM peptide. A stock solution of 500 mM MES, pH 5.6 was used to adjust all samples to a final concentration of 50 mM MES, pH 5.6. Aliquots of 10 mg/mL polyuridylic acid (polyU; Sigma Aldrich) were prepared in Milli-Q water and diluted as necessary. For CW-EPR measurements, a quartz capillary of 0.6 mm i.d. and 0.84 mm o.d. was filled with 7–8 μL of the sample and sealed with Critoseal (Fisherbrand, Fisher Scientific) at one end. A single capillary was placed in an X-band EPR tube of 2 mm i.d. and 2.4 mm o.d. for measurements, except for spin concentration below 50 μM, where two capillaries were used.
Each sample was freshly prepared and the time to collect […] CW-EPR data was 30–40 min.
CW-EPR spectra were recorded on an Elexsys E500 X-Band (9.5 GHz) Bruker spectrometer using a high sensitivity resonator at room temperature. The following parameters were used: 0.1 mT field modulation amplitude, a 15 mT scan range, and 20 mW microwave power. Each scan was 42 s and at least 9 scans were accumulated for each data set. For samples with a high concentration of polyU or a low concentration of labeled peptide, at least 25–36 scans were collected to improve the signal to noise (S/N) ratio. Simulations of the spectra were performed using the “Chili” routine of EasySpin (www.easyspin.org).[21]
After characterizing the dynamic and structural properties of PA in solution, we proceeded to explore these properties upon interaction with the homopolymeric RNA molecule polyU. […] PA-12, like the unlabeled peptide, produced coacervates.[17] […] Using CW-EPR, binding of PA to RNA can be tracked through spin label dynamics. We initially kept the concentration of PA-12 constant at 150 μM and varied the amount of polyU. The CW-EPR spectra in Figure 3B indicate superposition of two populations, I and II. […] The relative intensity of II increases with the amount of polyU added, indicating binding of PA-12 to polyU. The percentage of II increased from 32% at 0.1 mg/mL polyU to 93% at 1 mg/mL polyU. Increasing to 2 mg/mL polyU and reducing the PA-12 concentration to 100 μM increased the population of II to 95% (Figures 3B and S15G). Such restricted motion and dynamic components have also been reported for proteins undergoing phase separation.[38],[39]

What does the source list for “RIRRASVEELTCVPGIGPRLARRILERLA [PA-12, Precursor-Arg peptide in which position 12 has been modified with a cysteine and attached to an M-TEMPO spin label]”?
population I (fast motion) (30 μM PA-12, 1 mg/mL polyU): 40 ± 5% and 40%; population II (slow motion, polyU-bound) (30 μM PA-12, 1 mg/mL polyU): 60 ± 5% and 60%; population I (fast motion) (50 μM PA-12, 1 mg/mL polyU): 25 ± 5%; population II (slow motion, polyU-bound) (50 μM PA-12, 1 mg/mL polyU): 75 ± 5%; population I (fast motion) (100 μM PA-12, 1 mg/mL polyU): 10 ± 4%; population II (slow motion, polyU-bound) (100 μM PA-12, 1 mg/mL polyU): 90 ± 4%; population II (slow motion, polyU-bound) (100 μM PA-12, 2 mg/mL polyU, 50 mM MES pH 5.6, room temperature): 95%; population II (slow motion, polyU-bound) (150 μM PA-12, 0.1 mg/mL polyU, 50 mM MES pH 5.6, room temperature): 32%; population II (slow motion, polyU-bound) (150 μM PA-12, 1 mg/mL polyU, 50 mM MES pH 5.6, room temperature): 93 ± 2% and 93%; population I (fast motion) (150 μM PA-12, 1 mg/mL polyU): 7 ± 2%; population I (fast motion) (200 μM PA-12, 1 mg/mL polyU): 4 ± 2%; population II (slow motion, polyU-bound) (200 μM PA-12, 1 mg/mL polyU): 96 ± 2% and 96%
